Source: ChEMBL document CHEMBL5046241, “The novel therapeutic strategy of vilazodone-donepezil chimeras as potent triple-target ligands for the potential treatment of Alzheimer's disease with comorbid depression” (Eur J Med Chem, 2022)

Legend:
in vitro [1] = conditions: Sprague-Dawley, rat, microsomes
in vitro [2] = conditions: CD-1, mouse, microsomes
[3] = biological target: 5-hydroxytryptamine receptor 1B (Homo sapiens, UniProt P28222)
Description: Agonist activity at 5-HT1B receptor (unknown origin)

in vitro [4] = conditions: Sprague-Dawley, rat, microsomes; remark: listed apart in the source
in vitro [5] = conditions: CD-1, mouse, microsomes; remark: listed apart in the source
Acetylcholinesterase [6] = biological target: T1, Acetylcholinesterase (Mus musculus, UniProt P21836); test: biochemical
T1 sequence (P21836 whole entry): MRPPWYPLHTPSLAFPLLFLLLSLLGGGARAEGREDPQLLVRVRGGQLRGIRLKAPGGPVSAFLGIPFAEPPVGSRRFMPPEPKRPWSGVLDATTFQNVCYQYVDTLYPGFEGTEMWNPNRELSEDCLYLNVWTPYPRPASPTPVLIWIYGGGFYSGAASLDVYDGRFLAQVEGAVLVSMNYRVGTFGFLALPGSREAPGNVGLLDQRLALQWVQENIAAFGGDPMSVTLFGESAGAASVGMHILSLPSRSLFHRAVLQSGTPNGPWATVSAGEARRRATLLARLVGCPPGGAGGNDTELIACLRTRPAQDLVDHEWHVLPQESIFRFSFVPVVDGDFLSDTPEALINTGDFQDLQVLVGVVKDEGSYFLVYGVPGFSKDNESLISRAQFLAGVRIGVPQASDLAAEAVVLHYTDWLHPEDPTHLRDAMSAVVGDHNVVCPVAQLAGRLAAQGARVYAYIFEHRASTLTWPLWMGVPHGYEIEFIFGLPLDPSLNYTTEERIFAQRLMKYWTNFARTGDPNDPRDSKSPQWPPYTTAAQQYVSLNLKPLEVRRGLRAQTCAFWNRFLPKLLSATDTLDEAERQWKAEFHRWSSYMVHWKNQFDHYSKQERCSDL
Description: Inhibition of AChE in mouse cortical homogenate using acetylthiocholine iodide as substrate incubated for 20 mins by Ellman's method

[7] = biological target: Sodium-dependent serotonin transporter (Homo sapiens, UniProt P31645); format: cell-based, HEK293
in vitro [8] = conditions: PAMPA
Description: Permeability of compound by PAMPA-BBB assay

[9] = biological target: T2, 5-hydroxytryptamine receptor 1A (Homo sapiens, UniProt P08908)
T2 sequence (P08908 whole entry): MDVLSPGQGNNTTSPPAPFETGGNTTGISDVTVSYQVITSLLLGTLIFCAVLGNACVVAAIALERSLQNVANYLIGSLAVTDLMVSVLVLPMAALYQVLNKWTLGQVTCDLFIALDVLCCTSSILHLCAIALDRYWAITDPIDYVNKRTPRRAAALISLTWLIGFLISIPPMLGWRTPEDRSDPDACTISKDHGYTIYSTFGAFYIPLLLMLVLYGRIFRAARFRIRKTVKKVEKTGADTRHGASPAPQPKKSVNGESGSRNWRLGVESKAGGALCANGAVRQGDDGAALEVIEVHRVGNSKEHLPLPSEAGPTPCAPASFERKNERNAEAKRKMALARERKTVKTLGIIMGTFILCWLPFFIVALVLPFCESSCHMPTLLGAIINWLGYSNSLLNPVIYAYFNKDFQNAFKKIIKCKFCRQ
Description: Agonist activity at human 5-HT1A receptor expressed in HEK293 cells incubated for 60 mins by Eu-cAMP tracer based LANCE ultra cAMP assay

Cholinesterase = Cholinesterase (Mus musculus, UniProt Q03311)
Description: Inhibition of BuChE in mouse serum using butyrylthiocholine iodide as substrate incubated for 20 mins by Ellman's method

[10] = biological target: Sodium-dependent noradrenaline transporter (Homo sapiens, UniProt P23975)
Description: Inhibition of norepinephrine transporter (unknown origin)

[11] = biological target: Sodium-dependent dopamine transporter (Homo sapiens, UniProt Q01959)
Description: Inhibition of dopamine transporter (unknown origin)

[12] = biological target: Voltage-gated inwardly rectifying potassium channel KCNH2 (Homo sapiens, UniProt Q12809)
Description: Inhibition of hERG expressed in CHO cells at -80 mV holding potential by automated patch clamp method

Acetylcholinesterase [13] = biological target: T1, Acetylcholinesterase; test: Inhibition of mouse AChE assessed as inhibition constant using acetylthiocholine iodide as substrate measured every 2 mins by lineweaver-burk plot analysis
Acetylcholinesterase [14] = biological target: Acetylcholinesterase (Homo sapiens, UniProt P22303); test: Inhibition of […] using acetylthiocholine iodide as substrate incubated for 20 mins by Ellman's method; design: species or system Erythrocyte
Sequence of Acetylcholinesterase (Homo sapiens, UniProt P22303) (P22303 whole entry): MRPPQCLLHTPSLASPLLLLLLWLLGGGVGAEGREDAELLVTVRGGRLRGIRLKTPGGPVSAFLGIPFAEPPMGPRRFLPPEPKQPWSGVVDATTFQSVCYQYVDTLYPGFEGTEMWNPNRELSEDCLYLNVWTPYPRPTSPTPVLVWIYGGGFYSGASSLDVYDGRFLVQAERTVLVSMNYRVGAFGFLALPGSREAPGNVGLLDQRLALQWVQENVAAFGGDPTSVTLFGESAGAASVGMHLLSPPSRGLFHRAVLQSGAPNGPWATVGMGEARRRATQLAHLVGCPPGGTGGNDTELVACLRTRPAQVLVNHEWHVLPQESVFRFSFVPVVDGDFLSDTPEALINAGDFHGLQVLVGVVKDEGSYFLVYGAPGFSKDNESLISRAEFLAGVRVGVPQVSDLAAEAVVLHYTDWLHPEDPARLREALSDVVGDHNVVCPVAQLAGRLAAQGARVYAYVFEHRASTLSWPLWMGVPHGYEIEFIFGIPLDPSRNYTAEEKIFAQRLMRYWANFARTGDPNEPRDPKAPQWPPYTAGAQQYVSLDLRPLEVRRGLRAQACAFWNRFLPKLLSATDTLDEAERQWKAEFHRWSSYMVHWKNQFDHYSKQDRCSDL

Sequence of Sodium-dependent serotonin transporter (P31645 whole entry): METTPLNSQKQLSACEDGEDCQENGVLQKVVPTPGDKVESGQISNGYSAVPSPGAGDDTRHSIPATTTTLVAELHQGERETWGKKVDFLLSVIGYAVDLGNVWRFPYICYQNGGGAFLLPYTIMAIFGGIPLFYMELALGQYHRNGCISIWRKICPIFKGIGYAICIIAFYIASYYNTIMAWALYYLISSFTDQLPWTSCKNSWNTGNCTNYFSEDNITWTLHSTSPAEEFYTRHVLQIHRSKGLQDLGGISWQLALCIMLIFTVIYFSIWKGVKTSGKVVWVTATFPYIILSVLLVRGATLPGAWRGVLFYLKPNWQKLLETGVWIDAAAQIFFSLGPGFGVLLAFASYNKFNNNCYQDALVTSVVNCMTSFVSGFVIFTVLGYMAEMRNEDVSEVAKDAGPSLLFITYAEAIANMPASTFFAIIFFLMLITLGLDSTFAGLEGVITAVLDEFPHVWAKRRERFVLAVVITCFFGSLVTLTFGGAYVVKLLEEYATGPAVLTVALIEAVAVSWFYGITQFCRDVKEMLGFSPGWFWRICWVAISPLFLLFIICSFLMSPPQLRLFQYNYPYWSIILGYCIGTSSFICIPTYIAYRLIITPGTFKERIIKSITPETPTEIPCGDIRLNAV
Sequence of Cholinesterase (Q03311 whole entry): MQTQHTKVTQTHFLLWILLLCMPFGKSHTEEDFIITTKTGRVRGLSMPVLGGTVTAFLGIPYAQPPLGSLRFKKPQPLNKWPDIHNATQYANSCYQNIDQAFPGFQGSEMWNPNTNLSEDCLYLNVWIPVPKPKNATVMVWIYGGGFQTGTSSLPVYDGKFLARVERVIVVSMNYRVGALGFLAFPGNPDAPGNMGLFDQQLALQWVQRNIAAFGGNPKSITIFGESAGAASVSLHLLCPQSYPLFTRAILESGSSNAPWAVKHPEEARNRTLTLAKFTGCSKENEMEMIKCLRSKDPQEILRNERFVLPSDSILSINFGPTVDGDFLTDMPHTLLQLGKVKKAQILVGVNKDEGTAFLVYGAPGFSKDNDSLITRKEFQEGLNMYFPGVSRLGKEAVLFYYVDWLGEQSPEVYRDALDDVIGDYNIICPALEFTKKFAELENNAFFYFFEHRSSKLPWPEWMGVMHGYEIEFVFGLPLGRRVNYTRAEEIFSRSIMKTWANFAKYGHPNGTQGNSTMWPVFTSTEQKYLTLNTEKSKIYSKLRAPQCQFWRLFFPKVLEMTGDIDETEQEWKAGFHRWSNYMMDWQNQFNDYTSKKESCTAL
Sequence of 5-hydroxytryptamine receptor 1B (P28222 whole entry): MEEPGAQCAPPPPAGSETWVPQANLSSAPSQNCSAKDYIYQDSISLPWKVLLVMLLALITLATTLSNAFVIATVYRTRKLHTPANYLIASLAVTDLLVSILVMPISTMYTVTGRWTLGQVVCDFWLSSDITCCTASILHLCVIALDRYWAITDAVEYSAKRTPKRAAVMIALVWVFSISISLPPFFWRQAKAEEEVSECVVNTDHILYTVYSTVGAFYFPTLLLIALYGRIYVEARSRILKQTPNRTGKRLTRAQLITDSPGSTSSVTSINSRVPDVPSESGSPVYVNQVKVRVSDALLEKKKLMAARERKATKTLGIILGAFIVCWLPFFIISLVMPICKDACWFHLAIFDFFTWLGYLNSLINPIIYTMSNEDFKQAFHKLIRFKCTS
Sequence of Voltage-gated inwardly rectifying potassium channel KCNH2 (Q12809 whole entry): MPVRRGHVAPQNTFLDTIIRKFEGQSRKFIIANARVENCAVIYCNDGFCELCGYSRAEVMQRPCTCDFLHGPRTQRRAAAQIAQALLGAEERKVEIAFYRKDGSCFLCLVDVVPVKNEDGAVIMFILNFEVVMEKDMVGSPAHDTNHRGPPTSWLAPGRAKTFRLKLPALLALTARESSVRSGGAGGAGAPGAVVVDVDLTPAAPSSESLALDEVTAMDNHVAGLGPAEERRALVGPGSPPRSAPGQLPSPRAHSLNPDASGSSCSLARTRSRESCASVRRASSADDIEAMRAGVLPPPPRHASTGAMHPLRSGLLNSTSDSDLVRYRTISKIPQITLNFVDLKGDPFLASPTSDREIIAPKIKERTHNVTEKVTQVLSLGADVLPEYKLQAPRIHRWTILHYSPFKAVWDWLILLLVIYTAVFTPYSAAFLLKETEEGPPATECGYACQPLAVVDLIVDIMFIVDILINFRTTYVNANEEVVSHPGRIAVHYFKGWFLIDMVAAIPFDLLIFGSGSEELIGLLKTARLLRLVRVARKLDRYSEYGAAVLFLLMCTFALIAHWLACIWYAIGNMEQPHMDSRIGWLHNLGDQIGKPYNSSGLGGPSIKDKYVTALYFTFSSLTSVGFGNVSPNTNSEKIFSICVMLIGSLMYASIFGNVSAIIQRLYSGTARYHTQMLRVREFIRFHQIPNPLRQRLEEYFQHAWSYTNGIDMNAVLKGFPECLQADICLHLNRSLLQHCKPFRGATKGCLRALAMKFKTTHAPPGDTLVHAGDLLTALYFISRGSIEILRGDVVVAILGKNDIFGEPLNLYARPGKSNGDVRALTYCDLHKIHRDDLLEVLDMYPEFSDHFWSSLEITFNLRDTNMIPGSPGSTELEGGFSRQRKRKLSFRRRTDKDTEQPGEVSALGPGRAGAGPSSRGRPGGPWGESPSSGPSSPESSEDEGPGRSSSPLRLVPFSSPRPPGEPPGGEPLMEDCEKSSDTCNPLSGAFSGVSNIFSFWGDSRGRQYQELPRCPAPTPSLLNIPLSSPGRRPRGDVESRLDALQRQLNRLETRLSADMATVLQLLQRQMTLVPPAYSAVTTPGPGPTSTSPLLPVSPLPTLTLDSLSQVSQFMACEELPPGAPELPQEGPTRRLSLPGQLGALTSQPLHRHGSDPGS
Sequence of Sodium-dependent dopamine transporter (Q01959 whole entry): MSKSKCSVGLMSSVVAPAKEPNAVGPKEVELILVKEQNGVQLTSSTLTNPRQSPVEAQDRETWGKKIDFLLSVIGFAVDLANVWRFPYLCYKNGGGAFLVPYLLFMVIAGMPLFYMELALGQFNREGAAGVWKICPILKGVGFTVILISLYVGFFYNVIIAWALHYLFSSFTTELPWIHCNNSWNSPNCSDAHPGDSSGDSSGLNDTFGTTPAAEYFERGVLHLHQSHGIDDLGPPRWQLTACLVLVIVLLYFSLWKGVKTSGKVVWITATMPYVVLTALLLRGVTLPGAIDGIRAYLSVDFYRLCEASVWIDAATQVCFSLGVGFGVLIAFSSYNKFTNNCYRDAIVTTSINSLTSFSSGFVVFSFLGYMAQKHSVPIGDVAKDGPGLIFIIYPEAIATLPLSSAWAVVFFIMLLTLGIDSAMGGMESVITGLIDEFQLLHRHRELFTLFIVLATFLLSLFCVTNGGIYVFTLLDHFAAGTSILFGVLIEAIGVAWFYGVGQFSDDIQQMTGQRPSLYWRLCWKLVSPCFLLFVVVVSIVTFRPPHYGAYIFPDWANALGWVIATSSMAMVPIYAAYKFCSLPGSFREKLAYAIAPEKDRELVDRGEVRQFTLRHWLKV
Sequence of Sodium-dependent noradrenaline transporter (P23975 whole entry): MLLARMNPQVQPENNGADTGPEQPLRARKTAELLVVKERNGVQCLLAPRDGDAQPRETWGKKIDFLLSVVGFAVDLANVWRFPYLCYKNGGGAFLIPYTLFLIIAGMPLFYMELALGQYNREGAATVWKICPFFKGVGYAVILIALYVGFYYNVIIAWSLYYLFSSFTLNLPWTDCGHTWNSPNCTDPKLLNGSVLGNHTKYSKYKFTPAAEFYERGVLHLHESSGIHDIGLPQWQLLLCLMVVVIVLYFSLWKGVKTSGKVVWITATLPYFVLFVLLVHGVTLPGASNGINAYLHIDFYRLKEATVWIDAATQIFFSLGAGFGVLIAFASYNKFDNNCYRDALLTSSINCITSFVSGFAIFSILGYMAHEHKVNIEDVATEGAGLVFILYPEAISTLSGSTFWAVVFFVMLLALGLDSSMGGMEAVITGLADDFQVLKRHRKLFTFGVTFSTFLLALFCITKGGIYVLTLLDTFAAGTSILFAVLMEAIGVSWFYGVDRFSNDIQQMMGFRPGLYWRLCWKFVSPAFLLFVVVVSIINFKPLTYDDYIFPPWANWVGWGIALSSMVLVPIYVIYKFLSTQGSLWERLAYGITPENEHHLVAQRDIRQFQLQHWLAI

Compound	IC50 (Acetylcholinesterase [6])	IC50 [7]	Papp (in vitro [8])	EC50 [9]	IC50 (Cholinesterase)	also measured
C[C@]12CC[C@H]3[C@@H](CCC4=CC(=O)CC[C@@]43C)[C@@H]1CC[C@@H]2O [TESTOSTERONE]						microsomal CLint at […] (in vitro [1]): 597 µL/min/mg; microsomal CLint at […] (in vitro [2]): 189 µL/min/mg
CN1CCC[C@@H]1Cc1c[nH]c2ccc(CCS(=O)(=O)c3ccccc3)cc12						EC50 [3]: 11.6 nM
COc1cc2c(cc1OC)C(=O)C(CC1CCN(Cc3ccccc3)CC1)C2 (stereo unspecified) [DONEPEZIL]						half-life at […] (in vitro [4]): > 145 min; microsomal CLint at […] (in vitro [1]): < 9.6 µL/min/mg; half-life at […] (in vitro [5]): 46 min; microsomal CLint at […] (in vitro [2]): 34.8 µL/min/mg
N#Cc1ccc2[nH]cc(CN3CCN(c4ccc5c(c4)CC(CC4CCN(Cc6ccccc6)CC4)C5=O)CC3)c2c1 (stereo unspecified)	6.68 nM	15.9 nM	3.61 ×10⁻⁶ cm/s	> 1000 nM	498 nM	
N#Cc1ccc2[nH]cc(CCCCN3CCN(c4ccc5oc(C(N)=O)cc5c4)CC3)c2c1 [VILAZODONE]	21300 nM		10.8 ×10⁻⁶ cm/s			IC50 [10]: 158 nM; half-life at […] (in vitro [4]): 43.8 min; microsomal CLint at […] (in vitro [1]): 31.6 µL/min/mg; IC50 [11]: 295 nM; IC50 [12]: 5550 nM; half-life at […] (in vitro [5]): 39.8 min; microsomal CLint at […] (in vitro [2]): 30.1 µL/min/mg; EC50 [3]: > 30000 nM
N#Cc1ccc2[nH]cc(CCCN3CCN(c4ccc5c(c4)CC(CC4CCN(Cc6ccccc6)CC4)C5=O)CC3)c2c1 (stereo unspecified)	4.38 nM	18.4 nM	3.55 ×10⁻⁶ cm/s	316 nM	551 nM	
N#Cc1ccc2[nH]cc(CN3CCN(c4ccc(C(=O)CCC5CCN(Cc6cc[nH]c6)CC5)cc4)CC3)c2c1	3.42 nM	12.1 nM	3.17 ×10⁻⁶ cm/s	> 1000 nM	1150 nM	
N#Cc1ccc2[nH]cc(CCCCN3CCN(c4ccc(C(=O)CCC5CCN(Cc6cccnc6)CC5)cc4)CC3)c2c1	7.98 nM	16.2 nM	4.43 ×10⁻⁶ cm/s	22 nM	4590 nM	
N#Cc1ccc2[nH]cc(CCCCN3CCN(c4ccc(C(=O)CCC5CCN(Cc6ccccc6)CC5)cc4)CC3)c2c1	2.29 nM	29.2 nM		58.6 nM	2180 nM	Ki (Acetylcholinesterase [13]): 1.16 nM; IC50 (Acetylcholinesterase [14]): 0.58 nM; IC50 [11]: 1040 nM; IC50 [12]: > 40000 nM; EC50 [3]: > 30000 nM
N#Cc1ccc2[nH]cc(CN3CCN(c4ccc(C(=O)CCC5CCN(Cc6ccsc6)CC5)cc4)CC3)c2c1	2.35 nM	75.2 nM	5.25 ×10⁻⁶ cm/s	> 1000 nM	902 nM	
N#Cc1ccc2[nH]cc(CCCN3CCN(c4ccc(C(=O)CCC5CCN(Cc6ccccc6)CC5)cc4)CC3)c2c1	2.18 nM	39.9 nM	4.38 ×10⁻⁶ cm/s	65.5 nM	1490 nM	
N#Cc1ccc2[nH]cc(CCCCN3CCN(c4ccc(C(=O)CCC5CCN(Cc6ccsc6)CC5)cc4)CC3)c2c1	3.01 nM	20.1 nM	4.62 ×10⁻⁶ cm/s	66.6 nM	883 nM	
